Test results taken from ChEMBL document CHEMBL1201862, “PubChem BioAssay data set” (2004).
Active and inactive are the calls of the source.

Key:
[1] = target: T1, Kappa-type opioid receptor (Homo sapiens, UniProt P41145); test: SAR analysis of Antagonists of the Kappa Opioid Receptor (KOR) using an Image-Based Assay - Set 3. [Related pubchem assays (depositor defined):AID1777, AID1785]; type: functional
[2] = target: T1, Kappa-type opioid receptor; test: SAR analysis of small molecule antagonists of the kappa opioid receptor via a luminescent beta-arrestin assay - Set 3. [Related pubchem assays (depositor defined):AID1777, AID1778, AID1785, AID1786, AID1966, AID2133, AID2136, AID2285, AID2495]; type: functional
[3] = target: T1, Kappa-type opioid receptor; test: SAR analysis of Antagonists of the Kappa Opioid Receptor (KOR) using an Image-Based Assay - Set 4. [Related pubchem assays (depositor defined):AID1777, AID1785]; type: functional
Mu-type opioid receptor = Mu-type opioid receptor (Homo sapiens, UniProt P35372); test: SAR Analysis of Antagonists of the MOR Receptor using an Image-Based Assay - Set 3. [Related pubchem assays (depositor defined):AID1777, AID1785, AID1786, AID1966, AID2133, AID2136, AID2284, AID2285, AID2420]; type: functional
[4] = target: Delta-type opioid receptor (Homo sapiens, UniProt P41143); test: SAR Analysis of Antagonists of the DOR Receptor using an Image-Based Assay - Set 3. [Related pubchem assays (depositor defined):AID1777, AID1785]; type: functional;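 note: U2OS cells expressing DOR1 and beta-arrestin GFP stimulated with 100 nM SNC80; imaging of GFP-tagged beta-arrestin moving into spots after receptor activation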
[5] = target: T2, Trace amine-associated receptor 1 (Homo sapiens, UniProt Q96RJ0); test: Fluorescence-based cell-based high throughput dose response assay to identify agonists of the human trace amine associated receptor 1 (TAAR1).; type: functional
T2 sequence (Q96RJ0 whole entry): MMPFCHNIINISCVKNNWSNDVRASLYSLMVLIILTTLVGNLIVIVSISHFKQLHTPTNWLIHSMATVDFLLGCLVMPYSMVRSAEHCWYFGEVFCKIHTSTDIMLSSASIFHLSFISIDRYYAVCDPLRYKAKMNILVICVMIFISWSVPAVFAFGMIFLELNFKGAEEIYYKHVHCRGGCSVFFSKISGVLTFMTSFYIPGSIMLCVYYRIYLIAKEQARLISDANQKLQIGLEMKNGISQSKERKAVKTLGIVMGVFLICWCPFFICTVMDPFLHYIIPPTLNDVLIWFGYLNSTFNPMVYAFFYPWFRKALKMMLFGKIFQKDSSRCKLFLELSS

[6] = target: T3, Ubiquitin-conjugating enzyme E2 N (Homo sapiens, UniProt P61088); type: functional;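 note: Dose-response confirmation in a TR-FRET assay detecting UBC13-driven polyubiquitin chain formation, inhibition measured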
T3 sequence (P61088 whole entry): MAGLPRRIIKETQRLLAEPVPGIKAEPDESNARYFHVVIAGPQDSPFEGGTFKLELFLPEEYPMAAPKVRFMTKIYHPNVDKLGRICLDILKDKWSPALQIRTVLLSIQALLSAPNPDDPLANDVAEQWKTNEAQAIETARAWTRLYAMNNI

[7] = target: T4, DNA repair protein RAD52 homolog (Homo sapiens, UniProt P43351); type: functional, biochemical
T4 sequence (P43351 whole entry): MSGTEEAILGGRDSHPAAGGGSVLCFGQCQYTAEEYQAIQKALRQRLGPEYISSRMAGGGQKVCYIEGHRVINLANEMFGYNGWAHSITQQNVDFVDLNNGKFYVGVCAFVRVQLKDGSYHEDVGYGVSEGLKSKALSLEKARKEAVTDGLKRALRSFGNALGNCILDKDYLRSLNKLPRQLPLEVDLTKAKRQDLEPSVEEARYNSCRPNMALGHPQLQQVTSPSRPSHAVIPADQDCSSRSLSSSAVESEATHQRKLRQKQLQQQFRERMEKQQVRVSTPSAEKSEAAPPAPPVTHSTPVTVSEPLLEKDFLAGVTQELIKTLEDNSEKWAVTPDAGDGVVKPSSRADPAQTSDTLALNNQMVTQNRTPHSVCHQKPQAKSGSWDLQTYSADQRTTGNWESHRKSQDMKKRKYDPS

[8] = target: DNA damage-inducible transcript 3 protein (Mus musculus, UniProt P35639); type: functional, Cricetulus griseus
[9] = Vero E6 cell cytotoxicity, dose response, cytotoxicity control for non-replicating M. tuberculosis project, secondary assay (AID 492998); type: functional, VeroE6; conditions: Vero C1008
cells [10] = type: functional, cell-based
[11] = THP-1 cell cytotoxicity, dose response, cytotoxicity control for non-replicating M. tuberculosis project (AID 489025); type: functional
Nonstructural protein 1 = Nonstructural protein 1 (Influenza A virus, UniProt Q194T2); type: functional, Influenza A virus (A/California/07/2009(H1N1))
cells [12] = type: functional
cells [13] = type: functional, cell-based; remark: listed apart in the source
[14] = target: T2, Trace amine-associated receptor 1; test: Counterscreen for agonists of the human trace amine associated receptor 1 (hTAAR1): Fluorescence-based cell-based high throughput dose response assay to identify hTAAR1 agonist that also desensitize TAAR1 receptor response.; type: functional
[15] = Counterscreen for AddAB inhibitors: absorbance-based bacterial cell-based high throughput dose response assay for inhibitors of bacterial viability. [Related pubchem assays (depositor defined):AID435030, AID449728, AID449731, AID488942, AID488955, AID488956]; type: functional
[16] = target: T5, Intestinal-type alkaline phosphatase (Homo sapiens, UniProt P09923); test: human intestinal alkaline phosphatase activators, dose response, biochemical, luminescence, uHTS hits (AID 463120); type: functional
[17] = microbe, parasite or virus in culture; type: functional; conditions: Mycobacterium tuberculosis
[18] = target: Heat shock protein HSP 90-alpha (Homo sapiens, UniProt P07900); type: functional, organism-based
[19] = target: Intestinal-type alkaline phosphatase (Mus musculus, UniProt P24822); test: PubChem AID 488874; type: functional
[20] = target: T6, Endoribonuclease toxin MazF (Escherichia coli K-12, UniProt P0AE70); test: activation of MazEF endoribonuclease cleavage – biochemical, fluorescence, single-stranded RNA substrate, uHTS hits, dose response (AID 588481); type: functional
T6 sequence (P0AE70 whole entry): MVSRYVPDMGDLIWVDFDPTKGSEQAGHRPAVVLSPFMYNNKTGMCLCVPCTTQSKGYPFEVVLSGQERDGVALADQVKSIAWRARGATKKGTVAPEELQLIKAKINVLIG

[21] = target: T6, Endoribonuclease toxin MazF; test: substrate-only fluorescence increase artefacts – biochemical, single-stranded RNase substrate, counter-screen for MazEF activator project, dose response (AID 588502); type: functional
[22] = target: T5, Intestinal-type alkaline phosphatase; test: activation of human intestinal alkaline phosphatase – biochemical, luminescent, uHTS hits, set 2, dose response (AID 488817); type: functional;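 note: potency of activators that raise enzyme activity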
Exodeoxyribonuclease V = target: T7, Exodeoxyribonuclease V (Escherichia coli (strain K12), UniProt P04993+P07648+P08394); test: RecBCD inhibition via phage-restricted bacterial growth – absorbance, V66 E. coli, mutant T4 phage, counter-screen for AddAB inhibitor project, dose response (AID 492957); type: functional, cell-based, Escherichia coli str. K-12 substr. MG1655
T7 sequence (P04993 whole entry): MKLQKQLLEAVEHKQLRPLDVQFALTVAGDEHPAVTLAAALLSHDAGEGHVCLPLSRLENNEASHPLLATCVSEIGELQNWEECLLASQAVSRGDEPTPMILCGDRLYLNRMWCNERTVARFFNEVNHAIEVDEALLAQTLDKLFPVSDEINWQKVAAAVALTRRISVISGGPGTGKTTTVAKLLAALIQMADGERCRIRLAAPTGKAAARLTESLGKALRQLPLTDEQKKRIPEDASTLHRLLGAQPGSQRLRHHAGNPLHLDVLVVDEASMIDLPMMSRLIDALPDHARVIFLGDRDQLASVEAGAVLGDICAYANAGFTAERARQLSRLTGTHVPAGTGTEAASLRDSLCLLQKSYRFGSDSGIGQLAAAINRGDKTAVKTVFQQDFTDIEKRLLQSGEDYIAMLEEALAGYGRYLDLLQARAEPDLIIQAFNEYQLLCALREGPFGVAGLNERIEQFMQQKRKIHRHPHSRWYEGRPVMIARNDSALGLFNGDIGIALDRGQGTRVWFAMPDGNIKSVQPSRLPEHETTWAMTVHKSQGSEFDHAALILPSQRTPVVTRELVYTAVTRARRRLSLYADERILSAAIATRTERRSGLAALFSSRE
T7 sequence (P07648 whole entry): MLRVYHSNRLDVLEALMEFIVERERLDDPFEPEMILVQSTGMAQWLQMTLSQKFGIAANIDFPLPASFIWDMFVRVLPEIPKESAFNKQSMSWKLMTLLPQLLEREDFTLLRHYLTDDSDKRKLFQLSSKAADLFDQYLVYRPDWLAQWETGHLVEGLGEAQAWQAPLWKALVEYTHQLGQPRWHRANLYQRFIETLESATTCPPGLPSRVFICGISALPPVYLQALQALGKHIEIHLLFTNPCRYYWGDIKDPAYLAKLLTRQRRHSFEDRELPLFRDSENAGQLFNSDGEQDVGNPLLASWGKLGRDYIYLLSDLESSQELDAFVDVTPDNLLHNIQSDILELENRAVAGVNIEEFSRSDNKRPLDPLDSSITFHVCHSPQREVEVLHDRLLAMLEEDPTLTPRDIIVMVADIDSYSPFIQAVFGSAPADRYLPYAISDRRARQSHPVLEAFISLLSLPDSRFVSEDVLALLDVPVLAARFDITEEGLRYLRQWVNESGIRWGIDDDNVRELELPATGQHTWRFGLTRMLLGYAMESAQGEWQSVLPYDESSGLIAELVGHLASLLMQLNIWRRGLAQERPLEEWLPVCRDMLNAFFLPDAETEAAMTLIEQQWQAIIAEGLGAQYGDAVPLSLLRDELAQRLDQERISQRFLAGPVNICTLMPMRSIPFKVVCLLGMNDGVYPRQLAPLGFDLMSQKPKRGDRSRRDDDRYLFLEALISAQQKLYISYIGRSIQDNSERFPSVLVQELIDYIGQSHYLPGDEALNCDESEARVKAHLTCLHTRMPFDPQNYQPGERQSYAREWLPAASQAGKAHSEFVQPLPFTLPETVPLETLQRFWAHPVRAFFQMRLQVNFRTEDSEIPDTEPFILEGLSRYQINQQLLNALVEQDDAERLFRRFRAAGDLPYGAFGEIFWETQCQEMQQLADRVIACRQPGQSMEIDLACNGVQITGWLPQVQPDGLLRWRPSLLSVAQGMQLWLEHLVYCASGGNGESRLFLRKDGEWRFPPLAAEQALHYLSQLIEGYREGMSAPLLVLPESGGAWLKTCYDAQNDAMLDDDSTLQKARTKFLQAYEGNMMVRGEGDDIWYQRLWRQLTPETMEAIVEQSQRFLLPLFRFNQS
T7 sequence (P08394 whole entry): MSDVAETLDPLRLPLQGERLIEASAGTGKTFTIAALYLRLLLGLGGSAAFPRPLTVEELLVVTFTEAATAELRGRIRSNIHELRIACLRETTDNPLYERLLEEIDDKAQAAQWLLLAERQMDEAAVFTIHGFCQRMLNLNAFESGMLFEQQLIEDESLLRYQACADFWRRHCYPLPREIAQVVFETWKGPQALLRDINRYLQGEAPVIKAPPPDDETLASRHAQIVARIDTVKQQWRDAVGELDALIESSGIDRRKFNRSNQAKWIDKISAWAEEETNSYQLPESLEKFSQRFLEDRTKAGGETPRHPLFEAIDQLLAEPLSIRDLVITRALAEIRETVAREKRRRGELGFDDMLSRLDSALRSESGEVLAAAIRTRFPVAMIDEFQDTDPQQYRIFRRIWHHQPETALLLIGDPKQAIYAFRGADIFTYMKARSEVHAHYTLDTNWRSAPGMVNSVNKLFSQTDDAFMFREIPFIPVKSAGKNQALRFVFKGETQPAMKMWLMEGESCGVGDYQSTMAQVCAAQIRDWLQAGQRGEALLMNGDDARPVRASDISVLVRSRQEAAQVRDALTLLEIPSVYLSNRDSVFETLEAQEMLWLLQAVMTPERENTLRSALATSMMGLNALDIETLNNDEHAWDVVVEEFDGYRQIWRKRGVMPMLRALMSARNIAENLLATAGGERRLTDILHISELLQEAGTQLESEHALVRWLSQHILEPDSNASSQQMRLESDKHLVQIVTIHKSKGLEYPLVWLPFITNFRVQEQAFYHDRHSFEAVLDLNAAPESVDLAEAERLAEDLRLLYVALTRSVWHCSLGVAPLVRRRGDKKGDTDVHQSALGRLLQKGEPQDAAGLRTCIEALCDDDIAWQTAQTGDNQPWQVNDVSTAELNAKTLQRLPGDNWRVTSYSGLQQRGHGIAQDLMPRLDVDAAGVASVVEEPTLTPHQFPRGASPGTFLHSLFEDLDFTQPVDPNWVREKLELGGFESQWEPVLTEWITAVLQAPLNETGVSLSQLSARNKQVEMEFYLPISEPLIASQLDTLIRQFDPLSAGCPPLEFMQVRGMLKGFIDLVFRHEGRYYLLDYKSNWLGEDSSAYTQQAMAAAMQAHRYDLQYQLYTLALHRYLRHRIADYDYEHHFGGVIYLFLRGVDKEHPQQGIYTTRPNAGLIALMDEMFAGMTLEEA

T1 sequence (P41145 whole entry): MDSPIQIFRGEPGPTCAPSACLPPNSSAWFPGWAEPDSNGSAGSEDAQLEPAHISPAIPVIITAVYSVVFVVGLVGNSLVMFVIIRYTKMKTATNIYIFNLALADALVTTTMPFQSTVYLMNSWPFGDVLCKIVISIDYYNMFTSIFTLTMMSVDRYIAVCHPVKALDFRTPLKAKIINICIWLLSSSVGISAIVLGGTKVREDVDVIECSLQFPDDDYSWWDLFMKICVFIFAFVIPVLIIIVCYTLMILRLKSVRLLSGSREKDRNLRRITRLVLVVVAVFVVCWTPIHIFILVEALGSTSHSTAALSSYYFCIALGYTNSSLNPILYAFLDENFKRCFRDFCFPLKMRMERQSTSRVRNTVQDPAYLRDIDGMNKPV
T5 sequence (P09923 whole entry): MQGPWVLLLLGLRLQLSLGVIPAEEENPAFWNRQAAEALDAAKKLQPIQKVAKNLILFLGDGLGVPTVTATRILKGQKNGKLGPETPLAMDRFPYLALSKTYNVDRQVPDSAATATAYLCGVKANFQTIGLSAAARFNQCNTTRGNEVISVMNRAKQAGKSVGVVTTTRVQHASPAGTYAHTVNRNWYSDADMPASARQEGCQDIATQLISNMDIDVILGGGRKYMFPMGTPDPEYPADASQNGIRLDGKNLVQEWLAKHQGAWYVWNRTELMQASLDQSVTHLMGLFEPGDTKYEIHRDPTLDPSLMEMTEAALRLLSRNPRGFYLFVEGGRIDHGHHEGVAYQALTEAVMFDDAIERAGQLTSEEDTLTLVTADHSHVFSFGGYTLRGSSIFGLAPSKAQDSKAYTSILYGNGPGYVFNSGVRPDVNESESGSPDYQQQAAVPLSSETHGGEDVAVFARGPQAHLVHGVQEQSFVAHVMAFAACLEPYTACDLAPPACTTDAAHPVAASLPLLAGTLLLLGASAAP
Delta-type opioid receptor, sequence (P41143 whole entry): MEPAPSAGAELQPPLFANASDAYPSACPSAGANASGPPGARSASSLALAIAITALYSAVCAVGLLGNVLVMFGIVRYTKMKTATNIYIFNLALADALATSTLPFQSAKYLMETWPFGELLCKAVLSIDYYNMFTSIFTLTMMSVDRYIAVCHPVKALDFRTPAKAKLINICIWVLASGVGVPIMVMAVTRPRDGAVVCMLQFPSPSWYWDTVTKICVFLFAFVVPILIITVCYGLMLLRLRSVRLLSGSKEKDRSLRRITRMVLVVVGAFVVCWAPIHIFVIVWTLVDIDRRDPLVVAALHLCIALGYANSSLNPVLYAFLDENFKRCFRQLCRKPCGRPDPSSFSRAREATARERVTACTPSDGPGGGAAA
Mu-type opioid receptor, sequence (P35372 whole entry): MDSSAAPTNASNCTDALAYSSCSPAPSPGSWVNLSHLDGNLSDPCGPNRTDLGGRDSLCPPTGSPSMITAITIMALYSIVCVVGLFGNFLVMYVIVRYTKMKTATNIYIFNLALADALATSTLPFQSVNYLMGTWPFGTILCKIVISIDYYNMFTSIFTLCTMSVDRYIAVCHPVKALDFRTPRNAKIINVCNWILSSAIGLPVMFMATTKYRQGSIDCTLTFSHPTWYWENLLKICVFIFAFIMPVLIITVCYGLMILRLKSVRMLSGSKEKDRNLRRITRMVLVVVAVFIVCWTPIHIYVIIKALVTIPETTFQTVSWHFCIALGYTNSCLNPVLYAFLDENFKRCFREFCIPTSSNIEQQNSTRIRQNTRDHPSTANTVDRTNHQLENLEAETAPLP
Nonstructural protein 1, sequence (Q194T2 whole entry): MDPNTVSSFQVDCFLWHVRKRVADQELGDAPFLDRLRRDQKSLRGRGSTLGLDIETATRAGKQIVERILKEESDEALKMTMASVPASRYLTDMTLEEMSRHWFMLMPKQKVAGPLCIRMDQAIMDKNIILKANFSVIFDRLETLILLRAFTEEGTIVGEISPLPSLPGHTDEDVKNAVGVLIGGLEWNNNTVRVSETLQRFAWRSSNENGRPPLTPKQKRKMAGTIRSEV
DNA damage-inducible transcript 3 protein, sequence (P35639 whole entry): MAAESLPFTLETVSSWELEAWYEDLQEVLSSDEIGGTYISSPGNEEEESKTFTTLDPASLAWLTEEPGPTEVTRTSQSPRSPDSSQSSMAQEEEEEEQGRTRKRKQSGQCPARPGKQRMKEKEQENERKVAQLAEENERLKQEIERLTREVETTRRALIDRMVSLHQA
Intestinal-type alkaline phosphatase (Mus musculus, UniProt P24822), sequence (P24822 whole entry): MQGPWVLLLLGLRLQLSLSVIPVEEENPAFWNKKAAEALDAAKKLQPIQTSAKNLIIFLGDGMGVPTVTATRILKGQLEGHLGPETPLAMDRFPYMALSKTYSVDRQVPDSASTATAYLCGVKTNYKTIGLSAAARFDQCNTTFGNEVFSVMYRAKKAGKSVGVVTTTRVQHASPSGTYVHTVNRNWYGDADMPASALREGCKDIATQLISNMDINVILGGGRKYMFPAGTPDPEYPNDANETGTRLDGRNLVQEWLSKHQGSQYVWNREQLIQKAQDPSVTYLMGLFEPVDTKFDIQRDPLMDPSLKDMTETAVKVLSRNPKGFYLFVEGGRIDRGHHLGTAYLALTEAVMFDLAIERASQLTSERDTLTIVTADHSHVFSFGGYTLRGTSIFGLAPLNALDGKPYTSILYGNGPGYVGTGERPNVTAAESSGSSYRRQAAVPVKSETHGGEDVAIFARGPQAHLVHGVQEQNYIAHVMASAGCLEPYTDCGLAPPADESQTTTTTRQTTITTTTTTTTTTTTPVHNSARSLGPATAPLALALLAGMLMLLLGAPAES

Cc1ccc(N2CCN(CCCNC(=O)Cn3c(=O)c4cccn4c4cccnc43)CC2)cc1
active: IC50 [1] 776 nM | IC50 [2] 3.68 µM | IC50 [3] 1.01 µM
inactive: IC50 (Mu-type opioid receptor) 18.8 µM | IC50 [4] > 32 µM

N=C(N)N/N=C/c1cn(-c2ccccc2)nc1-c1cccs1.O=[N+]([O-])O
10 µM: Absolute IC50 (CHOP) [8]
inactive: IC50 [6] > 20 µM | IC50 (cells [10]) 12.2 µM | EC50 (cells [13]) 11.4 µM | IC50 [14] 17.7 µM
active: EC50 [5] 6.9 µM | AC50 [7] 3.85 µM | CC50 [9] 11 µM | CC50 [11] 12.3 µM | IC50 (Nonstructural protein 1) > 100 µM | IC50 (cells [12]) 11 µM

C=CCN1C(=O)/C(=N/Nc2ccccc2O)c2ccccc21
active: EC50 [16] 8.62 µM | CC50 [17] 38.1 µM | AC50 [18] 10.9 µM | IC50 [19] 9.81 µM | EC50 [22] 378 nM
inactive: IC50 [15] 42.8 µM | EC50 [20] > 99 µM | EC50 [21] 46.3 µM | IC50 (Exodeoxyribonuclease V) > 118 µM
